# Patent EP4806891A1 (Kangbaida (Sichuan) Biotechnology Co., Ltd., priority 2023, dated 2025)
# Target: T1, HEK-Blue-hTLR9 cells (Homo sapiens, UniProt Q9NR96)
# T1 construct: expressed in transfected cells; host or cells: HEK-Blue-hTLR9 cells (HEK293-derived reporter line)
# T1 sequence (Q9NR96 26-1032): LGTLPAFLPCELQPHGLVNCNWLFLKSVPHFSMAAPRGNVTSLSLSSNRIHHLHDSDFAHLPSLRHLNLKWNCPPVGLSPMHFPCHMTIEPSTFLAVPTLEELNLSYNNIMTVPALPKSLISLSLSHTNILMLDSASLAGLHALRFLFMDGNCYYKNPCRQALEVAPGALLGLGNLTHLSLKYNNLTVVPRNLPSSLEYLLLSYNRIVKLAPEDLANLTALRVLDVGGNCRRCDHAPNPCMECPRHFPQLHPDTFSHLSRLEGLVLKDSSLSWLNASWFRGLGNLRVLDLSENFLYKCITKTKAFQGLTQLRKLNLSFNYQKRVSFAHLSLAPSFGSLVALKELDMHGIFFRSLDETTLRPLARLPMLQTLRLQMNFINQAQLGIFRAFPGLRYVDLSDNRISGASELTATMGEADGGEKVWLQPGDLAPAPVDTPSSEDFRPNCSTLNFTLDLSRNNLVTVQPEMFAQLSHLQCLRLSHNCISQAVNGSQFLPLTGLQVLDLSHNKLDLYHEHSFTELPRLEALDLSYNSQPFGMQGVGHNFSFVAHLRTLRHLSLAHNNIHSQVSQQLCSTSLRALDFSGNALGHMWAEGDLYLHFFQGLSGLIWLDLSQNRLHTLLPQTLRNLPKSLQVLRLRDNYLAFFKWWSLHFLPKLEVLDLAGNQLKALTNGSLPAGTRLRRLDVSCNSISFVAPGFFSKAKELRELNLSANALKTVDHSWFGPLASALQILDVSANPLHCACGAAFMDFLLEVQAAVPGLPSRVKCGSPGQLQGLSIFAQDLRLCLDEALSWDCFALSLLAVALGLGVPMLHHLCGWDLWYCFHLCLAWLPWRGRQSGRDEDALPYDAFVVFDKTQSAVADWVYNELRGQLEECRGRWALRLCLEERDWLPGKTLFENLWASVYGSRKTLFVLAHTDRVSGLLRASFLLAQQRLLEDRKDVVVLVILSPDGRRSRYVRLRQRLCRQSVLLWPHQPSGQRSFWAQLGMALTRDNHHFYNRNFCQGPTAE
# Test: HEK-Blue-hTLR9 cell inhibition assay
# Format: cell-based
# Conditions: ODN2006 1 µM, 16 h, OD 620 nm, read-out: TLR9 IC50
# Method: HEK-Blue-hTLR7/8/9 cell inhibition assay
# 1. HEK-Blue-hTLR7/8 cells (1 × 10^4 cells/well) and HEK-Blue-hTLR9 cells (1.5 × 10^4 cells/well) were seeded in a 384-well cell culture plate, with a volume of 30 µL per well. The plate was incubated at 37°C in a 5% CO2 incubator for 4 h. 2. The compound was prepared with DMSO and diluted in DMEM medium to 10 concentrations (1:3 dilution), with final concentrations of 10000, 3333.3, 1111.1, 370.4, 123.5, 41.2, 13.7, 4.6, 1.5, and 0.5 nM; R848 was prepared with DMSO and diluted in DMEM medium, with final concentrations of 0.8 µM (HEK-Blue-hTLR7) and 3 µM (HEK-Blue-hTLR8); ODN2006 was prepared with endotoxin-free water and diluted in DMEM medium, with a final concentration of 1 µM. 3. Cells treated with DMSO were used as the blank control group, while cells treated solely with Resiquimod (R848) were used as the positive control group for HEK-Blue-hTLR7/8, and cells treated solely with ODN2006 were used as the positive control group for HEK-Blue-hTLR9. Cells treated with the test compound together with R848 or ODN2006 were used as the test group. Two parallel wells were set for each group and were placed at 37°C in a 5% CO2 incubator for incubation. 4. After being incubated for 4 h, the 384-well plate of HEK-Blue-hTLR7/8 was taken out from the incubator, and R848 alone or both R848 and the diluted compound were separately added into each well. The plate was placed at 37°C in a 5% CO2 incubator for incubation for 16 h; the 384-well plate of HEK-Blue-hTLR9 was taken out from the incubator, and ODN2006 alone or both ODN2006 and the diluted compound were added separately to each well. The plate was incubated at 37°C in a 5% CO2 incubator for 16 h. 5. After being incubated for 16 h, the 384-well plate was removed from the incubator and centrifuged at 1000 rpm for 1 minute. The optical density value of each well at 620 nm was measured using a multifunctional microplate reader. 6. The cell inhibition rate was calculated as (1-(OD620 test group-OD620 blank group)/(OD620 positive group-OD620 blank group))×100%, and the half maximal inhibitory concentration (IC50) was calculated through curve fitting. Table 1: Activity of the compounds of the present disclosure in HEK-Blue-hTLR7/8/9 cellular assays
row,SMILES,IC50 [µM]
1,"CN(C)[C@H]1CC[C@H](c2nnc([C@]34CN(c5ccc(C#N)c6ncccc56)C[C@@]3(C(F)(F)F)C4)o2)CC1 [Compound 21, 5-((1S,5R)-1-(5-((1R,4S)-4-(dimethylamino)cyclohexyl)-1,3,4-oxadiazol-2-yl)-5-(trifluoromethyl)-3-azabicyclo[3.1.0]hexan-3-yl)quinoline-8-carbonitrile]",> 1
2,"N#Cc1ccc(N2C[C@]3(c4nnc(C5=CCNC5)o4)C[C@]3(C(F)(F)F)C2)c2cccnc12 [Compound 22, 5-((1S,5R)-1-(5-(2,5-dihydro-1H-pyrrol-3-yl)-1,3,4-oxadiazol-2-yl)-5-(trifluoromethyl)-3-azabicyclo[3.1.0]hexan-3-yl)quinoline-8-carbonitrile]",> 10
3,"CN1CCC(n2cnc([C@]34CN(c5ccc(C#N)c6ncccc56)C[C@@]3(C(F)(F)F)C4)n2)CC1 [Compound 23, 5-((1S,5R)-1-(1-(1-methylpiperidin-4-yl)-1H-1,2,4-triazol-3-yl)-5-(trifluoromethyl)-3-azabicyclo[3.1.0]hexan-3-yl)quinoline-8-carbonitrile]",> 1
4,"CN1CC(Cc2nnc([C@]34CN(c5ccc(C#N)n6ncc(F)c56)C[C@@]3(C(F)(F)F)C4)o2)C1 [Compound 30, 3-fluoro-4-((1S,5R)-1-(5-((1-methylazetidin-3-yl)methyl)-1,3,4-oxadiazol-2-yl)-5-(trifluoromethyl)-3-azabicyclo[3.1.0]hexan-3-yl)pyrazolo[1,5-a]pyridine-7-carbonitrile]",> 1
5,"CN1CCC(Oc2nnc([C@]34CN(c5ccc(C#N)n6ncc(F)c56)C[C@@]3(C(F)(F)F)C4)o2)CC1 [Compound 31, 3-fluoro-4-((1S,5R)-1-(5-((1-methylpiperidin-4-yl)oxy)-1,3,4-oxadiazol-2-yl)-5-(trifluoromethyl)-3-azabicyclo[3.1.0]hexan-3-yl)pyrazolo[1,5-a]pyridine-7-carbonitrile]",> 1
6,"N#Cc1ccc(N2C[C@]3(c4nnc(C5(F)CNC5)o4)C[C@]3(C(F)(F)F)C2)c2cccnc12 [Compound 32, 5-((1S,5R)-1-(5-(3-Fluoroazetidin-3-yl)-1,3,4-oxadiazol-2-yl)-5-(trifluoromethyl)-3-azabicyclo[3.1.0]hexan-3-yl)quinoline-8-carbonitrile]",> 10
7,N#Cc1ccc(N2C[C@]3(c4nnc(C5CCNCC5F)o4)C[C@]3(C(F)(F)F)C2)c2cccnc12 (stereo partly drawn) [Compound 33],> 1
8,CN1CCC(c2nnc([C@]34CN(c5ccc(C#N)c6ncccc56)C[C@@]3(C(F)(F)F)C4)o2)CC1=O (stereo partly drawn) [Compound 34],> 10

# Continued, values first:
row,IC50 [µM],SMILES
1,> 10,"N#Cc1ccc(N2C[C@]3(c4nnc(C#CCN5CCOCC5)o4)C[C@]3(C(F)(F)F)C2)c2cccnc12 [Compound 24, 5-((1S,5R)-1-(5-(3-morpholinoprop-1-yn-1-yl)-1,3,4-oxadiazol-2-yl)-5-(trifluoromethyl)-3-azabicyclo[3.1.0]hexan-3-yl)quinoline-8-carbonitrile]"
2,< 1,"CN(C)CC#Cc1nnc([C@]23CN(c4ccc(C#N)c5ncccc45)C[C@@]2(C(F)(F)F)C3)o1 [Compound 25, 5-((1S,5R)-1-(5-(3-(dimethylamino)prop-1-yn-1-yl)-1,3,4-oxadiazol-2-yl)-5-(trifluoromethyl)-3-azabicyclo[3.1.0]hexan-3-yl)quinoline-8-carbonitrile]"
3,> 1,"CC1(C)CC(Cc2nnc([C@]34CN(c5ccc(C#N)c6ncccc56)C[C@@]3(C(F)(F)F)C4)o2)CC(C)(C)N1 [Compound 26, 5-((1S,5R)-1-(5-((2,2,6,6-tetramethylpiperidin-4-yl)methyl)-1,3,4-oxadiazol-2-yl)-5-(trifluoromethyl)-3-azabicyclo[3.1.0]hexan-3-yl)quinoline-8-carbonitrile]"
4,> 10,"N#Cc1ccc(N2C[C@]3(c4nnc(N5CCOCC5)o4)C[C@]3(C(F)(F)F)C2)c2cccnc12 [Compound 27, 5-((1S,5R)-1-(5-morpholino-1,3,4-oxadiazol-2-yl)-5-(trifluoromethyl)-3-azabicyclo[3.1.0]hexan-3-yl)quinoline-8-carbonitrile]"
